Assay results taken from patent US9403831B2, “Triazolopyrazine derivative and use thereof” (KOREA RESEARCH INSTITUTE OF CHEMICAL TECHNOLOGY, priority 2013, dated 2016).
Where a name gives a salt, the structure may show the parent alone.

Tests used:
c-Met enzyme = c-Met enzyme (Homo sapiens (Human), UniProt P08581); test: c-Met kinase inhibitory activity (DELFIA time-resolved fluorescence); assay type: biochemical; conditions: c-Met kinase activity reduced to 50%
Protocol: The c-Met kinase inhibitory activity was analyzed using dissociation enhanced lanthanide fluoro-immunoassay (DELFIA, Perkin Elmer), which is a kind of time-resolved fluorescence (TRF). […] of the compound prepared in the present invention, as a test compound, was put in a Greiner 96-well V-shaped bottom plate, and a tyrosin kinase buffer ([…]) mixed with a c-Met enzyme was added thereto, and then the enzyme and the test compound were stirred for 15 minutes, followed by culturing. An ATP solution ([…]) was added thereto to proceed with a kinase reaction at room temperature for 30 minutes, and then a 50 mM […] solution (EDTA, […]) was added to stop the reaction. After that, the reaction mixture was transferred to a plate coated with Streptavidin, followed by culturing under shaking. After 2 hours, the cultured material was washed three times with a PBS-T buffer (PBS 0.05% Tween 20).
The europium-labeled anti-phosphotyrosine antibody was diluted to 1:[…] of the diluent was added per well, followed by culturing under shaking. After 1 hour, the cultured material was washed three times with a PBS-T buffer (PBS 0.05% Tween 20).

[1] = test system: gastric cancer cell line Hs746T; test: Cancer cell proliferation inhibitory test (SRB or MTS assay, 72 hours); assay type: cell-based; conditions: Homo sapiens, cancer cell (Hs746T) proliferation inhibition, culturing with compound for 72 hours
Protocol: The drug used in the test was diluted to a desired concentration as a test medium, and the final concentration of dimethyl sulfoxide was 0.5% or less.
All the cancer cell lines used in the test originated from the human body, and gastric cancer cell lines Hs746T and MKN-45 were used.
5×10^3 cells of Hs746T were dispensed to each well of the 96-well flat bottom micro-plate. MKN-45 was dispensed at 1×10^4 cells. The cells were cultured for 24 hours, so that the cells adhered to the bottom, and then the culture liquid was removed. The culture liquid containing each of the compounds of the present invention was added, followed by culturing for 72 hours. After the culturing with the compound was completed, the cytotoxicity was measured using protein stain reagent SRB or MTS assay.
Specifically, after the culturing with the compound of the present invention was completed, the cultured liquid was removed. Each well was treated with a cool TCA solution, and allowed to stand at 4° C. for 1 hour to fix cells. The TCA solution was removed, followed by drying at room temperature, and then a stain solution containing 0.4% SRB dissolved in 1% acetic acid solution was added, and then the mixture was allowed to stand for 30 minutes to stain cells. […] The absorbance of each well was measured at a wavelength range of 520 nm using an Eliza reader (micro-plate reader).
The drug cytotoxicity was measured from the OD values for the well added without the drug (C), each well added with the drug (T), and the well initially added with the drug (Tz): [(T−Tz)/(C−Tz)]×100 for […]; or [(T−Tz)/(Tz)]×100 for Tz>T.
The cancer cell inhibitory activity measurement using MTS assay was conducted as follows. Specifically, after the culturing with the compound of the present invention was completed, the PMS solution and MTS solution constituting the CellTiter 96® AQueous Non-Radioactive Cell Proliferation Assay product from Promega Co. were mixed, and 20 μL was put into each well. After the cells were placed in an incubator for 4 hours, and then taken out and allowed to stand at room temperature for 10 minutes.

Chain of c-Met enzyme (P08581 25-1390): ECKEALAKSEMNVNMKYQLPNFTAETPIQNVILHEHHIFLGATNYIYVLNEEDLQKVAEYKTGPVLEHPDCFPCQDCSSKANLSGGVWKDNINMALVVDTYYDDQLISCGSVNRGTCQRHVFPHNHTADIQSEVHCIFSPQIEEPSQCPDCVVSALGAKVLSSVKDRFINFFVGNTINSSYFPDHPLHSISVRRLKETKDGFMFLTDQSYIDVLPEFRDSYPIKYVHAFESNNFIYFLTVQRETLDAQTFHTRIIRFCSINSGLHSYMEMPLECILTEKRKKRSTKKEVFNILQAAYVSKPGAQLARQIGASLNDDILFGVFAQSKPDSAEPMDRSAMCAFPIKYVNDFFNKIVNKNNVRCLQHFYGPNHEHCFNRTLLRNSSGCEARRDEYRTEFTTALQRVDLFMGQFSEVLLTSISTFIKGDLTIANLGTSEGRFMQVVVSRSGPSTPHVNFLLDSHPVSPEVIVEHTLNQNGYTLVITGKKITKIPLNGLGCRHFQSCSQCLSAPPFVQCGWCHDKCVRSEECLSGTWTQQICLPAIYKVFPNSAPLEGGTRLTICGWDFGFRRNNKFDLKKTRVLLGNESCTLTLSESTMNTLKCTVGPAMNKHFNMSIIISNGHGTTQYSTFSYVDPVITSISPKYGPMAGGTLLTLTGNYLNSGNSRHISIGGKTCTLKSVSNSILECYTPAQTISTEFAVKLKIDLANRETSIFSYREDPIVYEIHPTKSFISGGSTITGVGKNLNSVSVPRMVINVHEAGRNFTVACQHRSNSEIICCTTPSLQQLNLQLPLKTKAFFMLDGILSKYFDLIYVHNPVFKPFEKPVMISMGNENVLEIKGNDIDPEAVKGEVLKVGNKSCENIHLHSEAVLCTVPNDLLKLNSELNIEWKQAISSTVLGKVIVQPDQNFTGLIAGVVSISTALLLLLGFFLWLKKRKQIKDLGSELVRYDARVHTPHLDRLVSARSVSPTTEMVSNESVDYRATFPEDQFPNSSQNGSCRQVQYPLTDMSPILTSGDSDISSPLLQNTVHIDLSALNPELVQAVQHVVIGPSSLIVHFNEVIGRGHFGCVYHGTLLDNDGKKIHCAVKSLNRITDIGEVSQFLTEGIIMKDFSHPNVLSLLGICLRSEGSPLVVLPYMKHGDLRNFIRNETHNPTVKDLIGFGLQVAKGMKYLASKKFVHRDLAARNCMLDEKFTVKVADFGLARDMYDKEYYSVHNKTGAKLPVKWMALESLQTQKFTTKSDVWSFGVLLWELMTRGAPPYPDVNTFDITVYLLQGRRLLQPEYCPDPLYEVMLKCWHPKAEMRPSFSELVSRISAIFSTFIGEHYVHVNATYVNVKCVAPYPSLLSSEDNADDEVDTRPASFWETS

Cn1cc(-c2cnc3nnn(C[C@@H]4CN(c5ncc(-c6cnn(C7CCNCC7)c6)cn5)CCO4)c3n2)cn1 [Chemical formula 4, (S)-2-((6-(1-methyl-1H-pyrazol-4-yl)-1H-[1,2,3]triazolo[4,5-b]pyrazin-1-yl)methyl)-4-(5-(1-(piperidin-4-yl)-1H-pyrazol-4-yl)pyrimidin-2-yl)morpholine HCl salt]
IC50 (c-Met enzyme): 11 nM | IC50 [1]: 1.2 nM

CN1CCC(n2cc(-c3cnc(N4CCO[C@H](Cn5nnc6ncc(-c7cnn(C)c7)nc65)C4)nc3)cn2)CC1 [Chemical formula 7, (S)-2-((6-(1-methyl-1H-pyrazol-4-yl)-1H-[1,2,3]triazolo[4,5-b]pyrazin-1-yl)methyl)-4-(5-(1-(1-methylpiperidin-4-yl)-1H-pyrazol-4-yl)pyrimidin-2-yl)morpholine]
IC50 (c-Met enzyme): 6 nM | IC50 [1]: 0.11 nM

Cn1cc(-c2cnc3nnn(C[C@@H]4CN(c5ncc(-c6cnn(C7CCN(CCO)CC7)c6)cn5)CCO4)c3n2)cn1 [Chemical formula 8, (S)-2-(4-(4-(2-(2-((6-(1-methyl-1H-pyrazol-4-yl)-1H-[1,2,3]triazolo[4,5-b]pyrazin-1-yl)methyl)morpholino)pyrimidin-5-yl)-1H-pyrazol-1-yl)piperidin-1-yl)ethanol]
IC50 (c-Met enzyme): 4 nM | IC50 [1]: 0.14 nM

Cn1cc(-c2cnc3nnn(C[C@@H]4CN(c5ncc(C6=CCNCC6)cn5)CCO4)c3n2)cn1 [Chemical formula 9, (S)-2-((6-(1-methyl-1H-pyrazol-4-yl)-1H-[1,2,3]triazolo[4,5-b]pyrazin-1-yl)methyl)-4-(5-(1,2,3,6-tetrahydropyridin-4-yl)pyrimidin-2-yl)morpholine hydrochloride]
IC50 (c-Met enzyme): 3 nM | IC50 [1]: 0.95 nM

CN1CC=C(c2cnc(N3CCO[C@H](Cn4nnc5ncc(-c6cnn(C)c6)nc54)C3)nc2)CC1 [Chemical formula 10, (S)-4-(5-(1-methyl-1,2,3,6-tetrahydropyridin-4-yl)pyrimidin-2-yl)-2-((6-(1-methyl-1H-pyrazol-4-yl)-1H-[1,2,3]triazolo[4,5-b]pyrazin-1-yl)methyl)morpholine]
IC50 (c-Met enzyme): 4 nM | IC50 [1]: 1.1 nM

Cn1cc(-c2cnc3nnn(C[C@@H]4CN(c5ncc(-c6cnn(CCO)c6)cn5)CCO4)c3n2)cn1 [Chemical formula 11, (S)-2-(4-(2-(2-((6-(1-methyl-1H-pyrazol-4-yl)-1H-[1,2,3]triazolo[4,5-b]pyrazin-1-yl)methyl)morpholino)pyrimidin-5-yl)-1H-pyrazol-1-yl)ethanol hydrochloride]
IC50 (c-Met enzyme): 3 nM | IC50 [1]: 0.93 nM

Cn1cc(-c2cnc3nnn(C[C@@H]4CN(c5ncc(C6=CCN(CCO)CC6)cn5)CCO4)c3n2)cn1 [Chemical formula 12, (S)-2-(4-(2-(2-((6-(1-methyl-1H-pyrazol-4-yl)-1H-[1,2,3]triazolo[4,5-b]pyrazin-1-yl)methyl)morpholino)pyrimidin-5-yl)-5,6-dihydropyridin-1(2H)-yl)ethanol]
IC50 (c-Met enzyme): 4 nM | IC50 [1]: 0.96 nM

Cn1cc(-c2cnc3nnn(C[C@@H]4CN(c5ncc(-c6ccc(OCCN7CCOCC7)c(F)c6)cn5)CCO4)c3n2)cn1 [Chemical formula 13, (S)-4-(5-(3-fluoro-4-(2-morpholinoethoxy)phenyl)pyrimidin-2-yl)-2-((6-(1-methyl-1H-pyrazol-4-yl)-1H-[1,2,3]triazolo[4,5-b]pyrazin-1-yl)methyl)morpholine]
IC50 (c-Met enzyme): 15 nM | IC50 [1]: 0.86 nM

CN1CCN(CCOc2ccc(-c3cnc(N4CCO[C@H](Cn5nnc6ncc(-c7cnn(C)c7)nc65)C4)nc3)cc2)CC1 [Chemical formula 15, (S)-2-((6-(1-methyl-1H-pyrazol-4-yl)-1H-[1,2,3]triazolo[4,5-b]pyrazin-1-yl)methyl)-4-(5-(4-(2-(4-methylpiperazin-1-yl)ethoxy)phenyl)pyrimidin-2-yl)morpholine]
IC50 (c-Met enzyme): 6 nM

Cn1cc(-c2cnc3nnn(C[C@@H]4CN(c5ncc(OCCN6CCOCC6)cn5)CCO4)c3n2)cn1 [Chemical formula 16, (S)-2-((6-(1-methyl-1H-pyrazol-4-yl)-1H-[1,2,3]triazolo[4,5-b]pyrazin-1-yl)methyl)-4-(5-(2-morpholinoethoxy)pyrimidin-2-yl)morpholine]
IC50 [1]: 2.1 nM

N#Cc1cc(-c2cnc3nnn(C[C@@H]4CN(c5ncc(C6=CCN(CCO)CC6)cn5)CCO4)c3n2)ccc1F [Chemical formula 38, (S)-2-fluoro-5-(1-((4-(5-(1-(2-hydroxyethyl)-1,2,3,6-tetrahydropyridin-4-yl)pyrimidin-2-yl)morpholine-2-yl)methyl)-1H-[1,2,3]triazolo[4,5-b]pyrazin-6-yl)benzonitrile]
IC50 (c-Met enzyme): 3 nM

CN1CCN(Cc2ccc(-c3cnc(N4CCO[C@H](Cn5nnc6ncc(-c7ccc(F)c(C#N)c7)nc65)C4)nc3)cc2F)CC1 [Chemical formula 39, (S)-2-fluoro-5-(1-((4-(5-(3-fluoro-4-((4-methylpiperazin-1-yl)methyl)phenyl)pyrimidin-2-yl)morpholine-2-yl)methyl)-1H-[1,2,3]triazolo[4,5-b]pyrazin-6-yl)benzonitrile]
IC50 (c-Met enzyme): 2 nM

CN1CCN(Cc2ccc(-c3cnc(N4CCO[C@H](Cn5nnc6ncc(-c7cnn(C)c7)nc65)C4)nc3)cc2F)CC1 [Chemical formula 40, (S)-4-(5-(3-fluoro-4-((4-methylpiperazin-1-yl)methyl)phenyl)pyrimidin-2-yl)-2-((6-(1-methyl-1H-pyrazol-4-yl)-1H-[1,2,3]triazolo[4,5-b]pyrazin-1-yl)methyl)morpholine]
IC50 (c-Met enzyme): 2 nM

Cn1cc(-c2cnc3nnn(C[C@@H]4CN(c5ncc(-c6ccc(CN7CCOCC7)c(F)c6)cn5)CCO4)c3n2)cn1 [Chemical formula 42, (S)-4-(5-(3-fluoro-4-(morpholinomethyl)phenyl)pyrimidin-2-yl)-2-((6-(1-methyl-1H-pyrazol-4-yl)-1H-[1,2,3]triazolo[4,5-b]pyrazin-1-yl)methyl)morpholine]
IC50 (c-Met enzyme): 4 nM

CC(=O)N1CCN(Cc2ccc(-c3cnc(N4CCO[C@H](Cn5nnc6ncc(-c7cnn(C)c7)nc65)C4)nc3)cc2)CC1 [Chemical formula 45, (S)-1-(4-(4-(2-(2-((6-(1-methyl-1H-pyrazol-4-yl)-1H-[1,2,3]triazolo[4,5-b]pyrazin-1-yl)methyl)morpholino)pyrimidin-5-yl)benzyl)piperazin-1-yl)ethanone]
IC50 (c-Met enzyme): 8 nM

CN1CCN(C(=O)c2ccc(-c3cnc(N4CCO[C@H](Cn5nnc6ncc(-c7cnn(C)c7)nc65)C4)nc3)cc2)CC1 [Chemical formula 47, (S)-(4-(2-(2-((6-(1-methyl-1H-pyrazol-4-yl)-1H-[1,2,3]triazolo[4,5-b]pyrazin-1-yl)methyl)morpholino)pyrimidin-5-yl)phenyl)(4-methylpiperazin-1-yl) methanone]
IC50 (c-Met enzyme): 13 nM

CN1CCN(C(=O)c2ccc(-c3cnc(N4CCC[C@H](Cn5nnc6ncc(-c7cnn(C)c7)nc65)C4)nc3)cc2)CC1 [Chemical formula 48, (S)-(4-(2-(3-((6-(1-methyl-1H-pyrazol-4-yl)-1H-[1,2,3]triazolo[4,5-b]pyrazin-1-yl)methyl)piperidin-1-yl)pyrimidin-5-yl)phenyl)(4-methylpiperazin-1-yl)methanone]
IC50 (c-Met enzyme): 6 nM

CN1CCN(Cc2ccc(-c3cnc(N4CCO[C@H](Cn5nnc6ncc(-c7cccc(C#N)c7)nc65)C4)nc3)cc2)CC1 [Chemical formula 49, (S)-3-(1-((4-(5-(4-((4-methylpiperazin-1-yl)methyl)phenyl)pyrimidin-2-yl)morpholin-2-yl)methyl)-1H-[1,2,3]triazolo[4,5-b]pyrazin-6-yl)benzonitrile]
IC50 (c-Met enzyme): 8 nM
